Laboratory results from patent US20240190880A1 (THE REGENTS OF THE UNIVERSITY OF MICHIGAN, priority 2021, published 2024).

Each compound was assayed against T1, ER (Homo sapiens, UniProt P03372) (assay: ER degradation activity, in-cell western blot analysis in T47D cells). Conditions: compounds 16 hours, Table A does not say whether T47D or MCF7, read-out: Potency (DC50).
T1 construct: host or cells: T47D and MCF7 human breast cancer cells
T1 sequence (P03372 1-595): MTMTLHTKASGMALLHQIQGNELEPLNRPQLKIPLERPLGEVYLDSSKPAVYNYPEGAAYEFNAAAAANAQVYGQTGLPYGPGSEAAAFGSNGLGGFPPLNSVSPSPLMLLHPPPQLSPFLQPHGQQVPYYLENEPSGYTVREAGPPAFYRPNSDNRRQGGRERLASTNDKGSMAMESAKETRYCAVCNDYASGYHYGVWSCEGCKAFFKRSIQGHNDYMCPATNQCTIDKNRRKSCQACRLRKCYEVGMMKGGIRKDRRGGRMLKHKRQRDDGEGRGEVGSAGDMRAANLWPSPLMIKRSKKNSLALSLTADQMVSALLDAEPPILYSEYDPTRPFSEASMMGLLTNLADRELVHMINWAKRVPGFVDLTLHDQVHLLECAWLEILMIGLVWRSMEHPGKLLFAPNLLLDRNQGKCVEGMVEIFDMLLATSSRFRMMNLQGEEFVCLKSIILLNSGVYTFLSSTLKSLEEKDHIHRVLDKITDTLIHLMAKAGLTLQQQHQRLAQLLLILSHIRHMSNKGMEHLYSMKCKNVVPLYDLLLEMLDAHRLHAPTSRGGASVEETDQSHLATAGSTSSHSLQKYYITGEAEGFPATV
Type: cell-based
Summary of the method: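 Human T47D cells (DMEM, 10% FBS) are dosed for 16 h with 0.5% DMSO final and probed with 680- and 800-dye secondary antibodies. Relative ER is calculated against vehicle and untreated wells.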

DC50, > 100 nM:
COc1cc([C@H]2CC[C@H](C(=O)N3CCC(N4Cc5cc6c(cc5C4)C(=O)N(C4CCC(=O)NC4=O)C6=O)CC3)CC2)ncc1[C@@H]1c2[nH]c3ccccc3c2C[C@@H](C)N1CC(F)F (stereo partly drawn) [E 397, 6-(1-((1R,4r)-4-(5-((1R,3R)-2-(2,2-difluoroethyl)-3-methyl-2,3,4,9-tetrahydro-1H-pyrido[3,4-b]indol-1-yl)-4-methoxypyridin-2-yl)cyclohexane-1-carbonyl)piperidin-4-yl)-2-(2,6-dioxopiperidin-3-yl)-6,7-dihydropyrrolo[3,4-f]isoindole-1,3(2H,5H)-dione]
CN(c1ccc([C@@H]2c3ccc(O)cc3CC[C@@H]2c2ccccc2)cc1)C1CN(C[C@H]2CC[C@H](C(=O)N3Cc4cc5c(cc4C3)C(=O)N(C3CCC(=O)NC3=O)C5=O)CC2)C1 (stereo partly drawn) [E 398, 2-(2,6-dioxopiperidin-3-yl)-6-((1R,4r)-4-((3-((4-((1R,2S)-6-hydroxy-2-phenyl-1,2,3,4-tetrahydronaphthalen-1-yl)phenyl)(methyl)amino)azetidin-1-yl)methyl)cyclohexane-1-carbonyl)-6,7-dihydropyrrolo[3,4-f]isoindole-1,3(2H,5H)-dione]
C[C@@H]1Cc2c([nH]c3ccccc23)[C@@H](c2ncc(C3=CCC(C(=O)N4CCC(N5Cc6cc7c(cc6C5)C(=O)N(C5CCC(=O)NC5=O)C7=O)CC4)CC3)cc2F)N1CC(F)F (stereo partly drawn) [E 399, 6-(1-(4-(6-((1S,3R)-2-(2,2-difluoroethyl)-3-methyl-2,3,4,9-tetrahydro-1H-pyrido[3,4-b]indol-1-yl)-5-fluoropyridin-3-yl)cyclohex-3-ene-1-carbonyl)piperidin-4-yl)-2-(2,6-dioxopiperidin-3-yl)-6,7-dihydropyrrolo[3,4-f]isoindole-1,3(2H,5H)-dione]
C[C@@H]1Cc2c([nH]c3ccccc23)[C@@H](c2c(F)cc(C3CCC(C(=O)N4CCC(N5Cc6cc7c(cc6C5)C(=O)N(C5CCC(=O)NC5=O)C7=O)CC4)CC3)cc2F)N1CC(F)(F)CO (stereo partly drawn) [E 400, 6-(1-(4-(4-((1R,3R)-2-(2,2-difluoro-3-hydroxypropyl)-3-methyl-2,3,4,9-tetrahydro-1H-pyrido[3,4-b]indol-1-yl)-3,5-difluorophenyl)cyclohexane-1-carbonyl)piperidin-4-yl)-2-(2,6-dioxopiperidin-3-yl)-6,7-dihydropyrrolo[3,4-f]isoindole-1,3(2H,5H)-dione]
COc1nc(C2CCC(C(=O)N3CCC(N4Cc5cc6c(cc5C4)C(=O)N(C4CCC(=O)NC4=O)C6=O)CC3)CC2)ccc1[C@@H]1c2[nH]c3ccccc3c2C[C@@H](C)N1CC(F)F (stereo partly drawn) [E 402, 6-(1-(4-(5-((1R,3R)-2-(2,2-difluoroethyl)-3-methyl-2,3,4,9-tetrahydro-1H-pyrido[3,4-b]indol-1-yl)-6-methoxypyridin-2-yl)cyclohexane-1-carbonyl)piperidin-4-yl)-2-(2,6-dioxopiperidin-3-yl)-6,7-dihydropyrrolo[3,4-f]isoindole-1,3(2H,5H)-dione]
COc1cc([C@H]2CC[C@@H](C(=O)N3CCC(N4Cc5cc6c(cc5C4)C(=O)N(C4CCC(=O)NC4=O)C6=O)CC3)CC2)ccc1[C@@H]1c2[nH]c3ccccc3c2C[C@@H](C)N1CC(F)F (stereo partly drawn) [E 404, 6-(1-((1S,4s)-4-(4-((1R,3R)-2-(2,2-difluoroethyl)-3-methyl-2,3,4,9-tetrahydro-1H-pyrido[3,4-b]indol-1-yl)-3-methoxyphenyl)cyclohexane-1-carbonyl)piperidin-4-yl)-2-(2,6-dioxopiperidin-3-yl)-6,7-dihydropyrrolo[3,4-f]isoindole-1,3(2H,5H)-dione]
COc1cc(C2CCC(C(=O)N3CCC(N4Cc5cc6c(cc5C4)C(=O)N(C4CCC(=O)NC4=O)C6=O)CC3)CC2)cnc1[C@@H]1c2[nH]c3ccccc3c2C[C@@H](C)N1CC(F)F (stereo partly drawn) [E 405, 6-(1-(4-(6-((1S,3R)-2-(2,2-difluoroethyl)-3-methyl-2,3,4,9-tetrahydro-1H-pyrido[3,4-b]indol-1-yl)-5-methoxypyridin-3-yl)cyclohexane-1-carbonyl)piperidin-4-yl)-2-(2,6-dioxopiperidin-3-yl)-6,7-dihydropyrrolo[3,4-f]isoindole-1,3(2H,5H)-dione]
C[C@@H]1Cc2c([nH]c3ccccc23)[C@@H](c2ncc(C3CCC(C(=O)N4CCC(N5Cc6cc7c(cc6C5)C(=O)N(C5CCC(=O)NC5=O)C7=O)CC4)CC3)cc2F)N1CC(F)F (stereo partly drawn) [E 406, 6-(1-(4-(6-((1S,3R)-2-(2,2-difluoroethyl)-3-methyl-2,3,4,9-tetrahydro-1H-pyrido[3,4-b]indol-1-yl)-5-fluoropyridin-3-yl)cyclohexane-1-carbonyl)piperidin-4-yl)-2-(2,6-dioxopiperidin-3-yl)-6,7-dihydropyrrolo[3,4-f]isoindole-1,3(2H,5H)-dione]
O=C1CCC(N2C(=O)c3cc4c(cc3C2=O)CN(CC(=O)N2CCC3(CC2)CCN(c2ccc([C@H]5c6ccc7[nH]ncc7c6CC[C@H]5c5ccccc5)cc2)CC3)C4)C(=O)N1 (stereo partly drawn) [E 422, 2-(2,6-dioxopiperidin-3-yl)-6-(2-oxo-2-(9-(4-((6S,7R)-7-phenyl-6,7,8,9-tetrahydro-3H-benzo[e]indazol-6-yl)phenyl)-3,9-diazaspiro[5.5]undecan-3-yl)ethyl)-6,7-dihydropyrrolo[3,4-f]isoindole-1,3(2H,5H)-dione]

DC50, 10 to 100 nM:
COc1cc([C@H]2CC[C@H](C(=O)N3CCC(N4Cc5cc6c(cc5C4)C(=O)N(C4CCC(=O)NC4=O)C6=O)CC3)CC2)ccc1[C@@H]1c2[nH]c3ccccc3c2C[C@@H](C)N1CC(F)F (stereo partly drawn) [E 403, 6-(1-((1R,4r)-4-(4-((1R,3R)-2-(2,2-difluoroethyl)-3-methyl-2,3,4,9-tetrahydro-1H-pyrido[3,4-b]indol-1-yl)-3-methoxyphenyl)cyclohexane-1-carbonyl)piperidin-4-yl)-2-(2,6-dioxopiperidin-3-yl)-6,7-dihydropyrrolo[3,4-f]isoindole-1,3(2H,5H)-dione]
COc1c2c(cc3c1C(=O)N(C1CCC(=O)NC1=O)C3=O)CN(CC(=O)N1CCC3(CC1)CCN(c1ccc([C@@H]4c5ccc(O)cc5CC[C@@H]4c4ccccc4)cc1)CC3)C2 (stereo partly drawn) [E 420, 2-(2,6-dioxopiperidin-3-yl)-6-(2-(9-(4-((1R,2S)-6-hydroxy-2-phenyl-1,2,3,4-tetrahydronaphthalen-1-yl)phenyl)-3,9-diazaspiro[5.5]undecan-3-yl)-2-oxoethyl)-4-methoxy-6,7-dihydropyrrolo[3,4-f]isoindole-1,3(2H,5H)-dione]

DC50, < 10 nM:
C[C@@H]1Cc2c(ccc3[nH]ncc23)[C@@H](c2ccc(N3CCC4(CCN(C(=O)CN5Cc6cc7c(cc6C5)C(=O)N(C5CCC(=O)NC5=O)C7=O)CC4)CC3)cn2)N1CC(F)(F)F (stereo partly drawn) [E 413, 2-(2,6-dioxopiperidin-3-yl)-6-(2-(9-(6-((6S,8R)-8-methyl-7-(2,2,2-trifluoroethyl)-6,7,8,9-tetrahydro-3H-pyrazolo[4,3-f]isoquinolin-6-yl)pyridin-3-yl)-3,9-diazaspiro[5.5]undecan-3-yl)-2-oxoethyl)-6,7-dihydropyrrolo[3,4-f]isoindole-1,3(2H,5H)-dione]
